For 1 compound, EC50 results are on record in paper PMC12892976, “Alkylation-based optimization of antifungal FPPS inhibitors yields a potent, broad-spectrum lipophilic zoledronate derivative” (mBio, 2025).

Values after ≈ are worked out from the molar mass of the structure shown.

What all share (assay): squalene rescue assay
Common to all, as to type: cell-based

In experiment [1] the test system is C. neoformans H99. As to conditions: Cryptococcus neoformans, H99, read-out: EC50 (squalene concentration rescuing 50% of growth). As to the method:
(§1) Squalene rescue assays were performed as described previously ([7]). […] After incubation at 35°C for 24 h (C. albicans), 48 h (A. fumigatus), or 72 h (C. neoformans), OD600 was measured in a BioTek ELx800 plate reader.

The test system of experiment [2] is A. fumigatus ATCC 204305. The settings on record: Aspergillus fumigatus, ATCC204305, read-out: EC50 (squalene concentration rescuing 50% of growth). As to the method: as §1
For experiment [3], the system named is C. albicans SC5314. As to conditions: Candida albicans, SC5314, read-out: EC50 (squalene concentration rescuing 50% of growth). The method, then: as §1

As to `CC(C)=CCC/C(C)=C/CC/C(C)=C/CC/C=C(\C)CC/C=C(\C)CCC=C(C)C` [squalene], the values for the EC50 in experiment [1], in experiment [2] and in experiment [3] were 2.98 µg/mL (≈ 7.25 µM), 23.3 µg/mL (≈ 56.7 µM) and 12.4 µg/mL (≈ 30.3 µM), respectively.
